Key:
[1] = target: Calcium/calmodulin-dependent protein kinase kinase 2 (Homo sapiens) (UniProt Q96RR4); assay: Selectivity interaction (KinomeScan (DiscoverX)) EUB0000229b CAMKK2; settings: at 10 µM
[2] = target: Fibroblast growth factor receptor 3 (Homo sapiens, UniProt P22607); assay: Selectivity interaction (KinomeScan (DiscoverX)) EUB0000092b FGFR3; settings: at 10 µM
[3] = target: T1, Mitogen-activated protein kinase 12 (Homo sapiens) (UniProt P53778); assay: Selectivity interaction (KinomeScan (DiscoverX)) EUB0000655a MAPK12; settings: at 10 µM
T1 sequence (whole entry): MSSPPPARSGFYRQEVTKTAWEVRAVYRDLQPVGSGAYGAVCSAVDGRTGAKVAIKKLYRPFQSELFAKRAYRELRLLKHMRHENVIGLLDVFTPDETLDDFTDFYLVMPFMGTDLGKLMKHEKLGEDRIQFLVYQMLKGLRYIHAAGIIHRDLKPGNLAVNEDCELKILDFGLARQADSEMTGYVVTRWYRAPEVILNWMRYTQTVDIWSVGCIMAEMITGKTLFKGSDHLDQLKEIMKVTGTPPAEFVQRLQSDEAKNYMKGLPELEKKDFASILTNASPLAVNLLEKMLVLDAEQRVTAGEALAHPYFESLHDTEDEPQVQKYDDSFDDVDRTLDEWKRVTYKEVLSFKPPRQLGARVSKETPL

[4] = target: Rho-associated protein kinase 2 (Homo sapiens, UniProt O75116); assay: Selectivity interaction (Millipore kinase profiler) EUB0000124b ROCK2; settings: at 10 µM
Sequence of Rho-associated protein kinase 2 (O75116 whole entry, looked up): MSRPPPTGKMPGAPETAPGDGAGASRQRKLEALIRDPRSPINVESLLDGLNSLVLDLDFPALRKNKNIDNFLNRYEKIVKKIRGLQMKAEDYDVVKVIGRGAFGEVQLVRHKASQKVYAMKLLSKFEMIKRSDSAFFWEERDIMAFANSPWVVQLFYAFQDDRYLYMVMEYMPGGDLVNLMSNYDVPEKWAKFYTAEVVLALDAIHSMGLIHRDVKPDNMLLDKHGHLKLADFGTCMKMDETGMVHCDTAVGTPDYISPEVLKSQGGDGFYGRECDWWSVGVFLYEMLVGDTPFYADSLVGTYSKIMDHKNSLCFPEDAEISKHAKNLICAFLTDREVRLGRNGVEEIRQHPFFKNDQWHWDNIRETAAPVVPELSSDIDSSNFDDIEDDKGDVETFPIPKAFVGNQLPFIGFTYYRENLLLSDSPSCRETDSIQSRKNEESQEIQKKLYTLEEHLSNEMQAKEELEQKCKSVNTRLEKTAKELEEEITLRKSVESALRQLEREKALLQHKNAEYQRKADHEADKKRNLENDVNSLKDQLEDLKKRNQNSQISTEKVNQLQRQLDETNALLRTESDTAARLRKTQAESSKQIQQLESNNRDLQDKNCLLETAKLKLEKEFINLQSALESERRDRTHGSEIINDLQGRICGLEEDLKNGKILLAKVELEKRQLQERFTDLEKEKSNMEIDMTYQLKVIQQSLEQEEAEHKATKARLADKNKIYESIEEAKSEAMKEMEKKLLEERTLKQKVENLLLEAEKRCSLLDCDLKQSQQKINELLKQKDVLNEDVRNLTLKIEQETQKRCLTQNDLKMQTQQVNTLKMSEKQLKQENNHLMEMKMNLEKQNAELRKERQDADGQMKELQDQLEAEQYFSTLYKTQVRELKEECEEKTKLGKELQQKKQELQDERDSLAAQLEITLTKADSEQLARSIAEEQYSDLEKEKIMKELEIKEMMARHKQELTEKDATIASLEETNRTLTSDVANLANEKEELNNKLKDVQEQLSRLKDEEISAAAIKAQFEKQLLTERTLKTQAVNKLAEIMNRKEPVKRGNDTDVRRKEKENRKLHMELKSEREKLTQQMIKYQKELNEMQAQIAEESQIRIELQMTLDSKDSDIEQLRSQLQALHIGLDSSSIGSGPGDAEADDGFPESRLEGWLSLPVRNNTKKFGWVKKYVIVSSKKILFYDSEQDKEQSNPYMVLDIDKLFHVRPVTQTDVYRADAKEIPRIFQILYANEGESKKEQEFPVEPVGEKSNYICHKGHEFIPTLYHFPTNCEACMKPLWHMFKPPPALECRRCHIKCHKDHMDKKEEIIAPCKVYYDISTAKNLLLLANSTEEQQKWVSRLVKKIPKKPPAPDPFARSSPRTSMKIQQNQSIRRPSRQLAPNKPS

[5] = target: T2, Serine/threonine-protein kinase Chk1 (Homo sapiens) (UniProt O14757); assay: Selectivity interaction (Kinase panel (Z-LYTE Assay)) EUB0001632a CHEK1; settings: at 10 µM
T2 sequence (whole entry): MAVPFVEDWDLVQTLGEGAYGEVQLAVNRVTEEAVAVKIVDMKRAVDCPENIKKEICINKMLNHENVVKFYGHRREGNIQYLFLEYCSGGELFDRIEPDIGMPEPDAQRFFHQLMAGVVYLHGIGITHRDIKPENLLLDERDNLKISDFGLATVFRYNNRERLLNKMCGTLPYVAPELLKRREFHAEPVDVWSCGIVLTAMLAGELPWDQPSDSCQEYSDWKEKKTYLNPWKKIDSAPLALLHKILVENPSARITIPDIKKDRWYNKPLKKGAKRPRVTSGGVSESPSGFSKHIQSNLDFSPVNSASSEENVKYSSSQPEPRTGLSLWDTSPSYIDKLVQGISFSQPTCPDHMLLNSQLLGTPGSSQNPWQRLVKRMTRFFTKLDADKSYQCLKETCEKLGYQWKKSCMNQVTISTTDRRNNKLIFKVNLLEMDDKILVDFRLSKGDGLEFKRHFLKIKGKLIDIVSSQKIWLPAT

[6] = target: Serine/threonine-protein kinase tousled-like 2 (Homo sapiens) (UniProt Q86UE8); assay: Selectivity interaction (ActivX KiNativ screen (kinase selectivity in THP-1 cell lysates)) EUB0000639a TLK2; format: subcellular; settings: lysate, at 0.2 µM
Sequence of Serine/threonine-protein kinase tousled-like 2 (Homo sapiens) (Q86UE8 whole entry, looked up): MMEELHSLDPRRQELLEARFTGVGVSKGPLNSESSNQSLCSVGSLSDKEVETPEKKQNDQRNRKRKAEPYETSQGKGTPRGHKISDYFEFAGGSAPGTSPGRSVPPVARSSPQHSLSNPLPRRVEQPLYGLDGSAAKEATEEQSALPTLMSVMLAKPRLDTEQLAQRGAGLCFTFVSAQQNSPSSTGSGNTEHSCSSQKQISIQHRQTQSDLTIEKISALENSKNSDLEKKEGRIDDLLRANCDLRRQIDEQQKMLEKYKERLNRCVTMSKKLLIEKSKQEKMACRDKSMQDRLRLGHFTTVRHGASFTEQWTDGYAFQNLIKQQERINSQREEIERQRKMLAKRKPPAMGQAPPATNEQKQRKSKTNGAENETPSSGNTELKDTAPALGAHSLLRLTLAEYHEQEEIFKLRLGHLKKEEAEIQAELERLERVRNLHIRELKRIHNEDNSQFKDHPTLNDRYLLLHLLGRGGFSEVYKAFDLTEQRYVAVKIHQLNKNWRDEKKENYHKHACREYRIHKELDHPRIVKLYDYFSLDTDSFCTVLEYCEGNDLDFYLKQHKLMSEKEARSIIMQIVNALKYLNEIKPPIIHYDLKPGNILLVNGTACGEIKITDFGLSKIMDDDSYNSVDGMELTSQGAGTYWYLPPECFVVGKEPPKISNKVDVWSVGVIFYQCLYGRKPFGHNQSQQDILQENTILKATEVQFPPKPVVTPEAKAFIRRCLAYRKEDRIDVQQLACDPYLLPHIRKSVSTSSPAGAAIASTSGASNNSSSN

[7] = target: T3, Dual specificity mitogen-activated protein kinase kinase 3 (Homo sapiens) (UniProt P46734); assay: Selectivity interaction (ActivX KiNativ screen (kinase selectivity in THP-1 cell lysates)) EUB0000639a MAP2K3; format: subcellular; settings: lysate, at 0.01 µM
T3 sequence (whole entry): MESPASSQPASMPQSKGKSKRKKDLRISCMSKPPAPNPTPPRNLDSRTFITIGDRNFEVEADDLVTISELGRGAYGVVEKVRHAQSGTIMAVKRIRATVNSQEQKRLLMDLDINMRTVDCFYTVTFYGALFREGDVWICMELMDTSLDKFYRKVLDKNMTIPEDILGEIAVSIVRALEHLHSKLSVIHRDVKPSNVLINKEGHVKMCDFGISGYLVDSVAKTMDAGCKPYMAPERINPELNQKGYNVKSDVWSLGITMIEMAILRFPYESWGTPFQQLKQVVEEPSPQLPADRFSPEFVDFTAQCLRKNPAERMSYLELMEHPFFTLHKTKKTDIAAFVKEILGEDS

[8] = target: T4, Tyrosine-protein kinase TXK (Homo sapiens) (UniProt P42681); assay: Selectivity interaction (KinomeScan (DiscoverX)) EUB0000595a TXK; settings: at 10 µM
T4 sequence (whole entry): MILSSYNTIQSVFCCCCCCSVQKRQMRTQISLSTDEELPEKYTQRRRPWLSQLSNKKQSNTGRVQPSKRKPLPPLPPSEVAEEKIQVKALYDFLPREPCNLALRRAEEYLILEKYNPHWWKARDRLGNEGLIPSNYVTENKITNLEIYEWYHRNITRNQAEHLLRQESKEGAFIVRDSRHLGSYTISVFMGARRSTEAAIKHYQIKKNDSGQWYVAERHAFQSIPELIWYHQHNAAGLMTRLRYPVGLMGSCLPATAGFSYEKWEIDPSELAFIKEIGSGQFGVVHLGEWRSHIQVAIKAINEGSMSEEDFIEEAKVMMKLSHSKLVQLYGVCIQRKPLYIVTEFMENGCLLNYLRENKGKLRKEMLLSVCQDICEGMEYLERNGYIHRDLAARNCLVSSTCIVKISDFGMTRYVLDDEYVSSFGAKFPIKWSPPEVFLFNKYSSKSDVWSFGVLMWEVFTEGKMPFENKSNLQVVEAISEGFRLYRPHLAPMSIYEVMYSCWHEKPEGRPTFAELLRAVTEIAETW

[9] = target: T5, Uncharacterized serine/threonine-protein kinase SBK3 (Homo sapiens) (UniProt P0C264); assay: Selectivity interaction (KinomeScan (DiscoverX)) EUB0000595a SBK3; settings: at 10 µM
T5 sequence (whole entry): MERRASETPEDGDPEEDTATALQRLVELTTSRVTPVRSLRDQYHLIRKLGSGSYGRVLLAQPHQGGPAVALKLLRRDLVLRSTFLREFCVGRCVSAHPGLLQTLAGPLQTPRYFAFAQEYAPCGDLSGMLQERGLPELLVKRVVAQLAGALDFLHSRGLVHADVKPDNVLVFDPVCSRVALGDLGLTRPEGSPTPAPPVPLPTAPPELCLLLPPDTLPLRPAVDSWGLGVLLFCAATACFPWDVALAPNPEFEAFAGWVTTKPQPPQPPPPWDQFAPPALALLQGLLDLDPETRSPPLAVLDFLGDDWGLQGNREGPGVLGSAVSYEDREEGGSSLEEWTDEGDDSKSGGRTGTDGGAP

[10] = target: RAC-alpha serine/threonine-protein kinase (Homo sapiens, UniProt P31749); assay: Selectivity interaction (Kinase panel (literature)) EUB0001199aCl AKT1; settings: at 1 µM
Sequence of RAC-alpha serine/threonine-protein kinase (P31749 whole entry): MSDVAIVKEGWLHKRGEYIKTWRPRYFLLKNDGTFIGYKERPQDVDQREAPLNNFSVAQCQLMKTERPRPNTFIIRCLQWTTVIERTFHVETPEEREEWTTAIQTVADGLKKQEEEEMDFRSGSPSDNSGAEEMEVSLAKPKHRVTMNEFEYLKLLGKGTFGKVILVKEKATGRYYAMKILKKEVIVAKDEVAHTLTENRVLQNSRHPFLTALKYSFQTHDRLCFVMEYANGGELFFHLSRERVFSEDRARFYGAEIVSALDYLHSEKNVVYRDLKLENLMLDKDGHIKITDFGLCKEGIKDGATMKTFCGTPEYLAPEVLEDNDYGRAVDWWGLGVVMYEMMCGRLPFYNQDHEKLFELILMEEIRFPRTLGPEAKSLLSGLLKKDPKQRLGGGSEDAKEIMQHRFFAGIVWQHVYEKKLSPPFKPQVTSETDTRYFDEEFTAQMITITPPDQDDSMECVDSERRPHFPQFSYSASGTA

[11] = target: Tyrosine-protein kinase CSK (Homo sapiens) (UniProt P41240); assay: Selectivity interaction (Ambit KINOMEscan and KiNATiv profiling in Jurkat cells) EUB0000090b CSK; format: cell-based; settings: at 1 µM
Sequence of Tyrosine-protein kinase CSK (Homo sapiens) (P41240 2-450 limits assumed): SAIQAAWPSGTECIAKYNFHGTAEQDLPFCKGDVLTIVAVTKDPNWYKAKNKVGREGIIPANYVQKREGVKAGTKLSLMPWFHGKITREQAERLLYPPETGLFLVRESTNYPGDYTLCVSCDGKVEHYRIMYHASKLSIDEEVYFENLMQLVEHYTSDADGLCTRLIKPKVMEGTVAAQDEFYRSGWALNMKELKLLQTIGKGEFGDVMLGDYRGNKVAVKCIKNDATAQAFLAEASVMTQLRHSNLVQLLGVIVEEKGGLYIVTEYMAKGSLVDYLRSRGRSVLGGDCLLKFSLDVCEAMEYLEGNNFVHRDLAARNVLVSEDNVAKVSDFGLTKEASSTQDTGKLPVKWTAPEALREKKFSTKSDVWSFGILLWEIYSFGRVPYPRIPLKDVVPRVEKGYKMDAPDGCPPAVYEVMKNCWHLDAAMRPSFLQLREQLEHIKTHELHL

[12] = target: Citron Rho-interacting kinase (Homo sapiens) (UniProt O14578); assay: Selectivity interaction (Ambit KINOMEscan and KiNATiv profiling in Jurkat cells) EUB0000090b CIT; format: cell-based; settings: at 1 µM
[13] = target: cAMP-dependent protein kinase catalytic subunit alpha (Homo sapiens, UniProt P17612); assay: Selectivity interaction (KinomeScan (DiscoverX)) EUB0001619a PRKACA; settings: at 1 µM

Sequence of Fibroblast growth factor receptor 3 (P22607 23-806 limits assumed): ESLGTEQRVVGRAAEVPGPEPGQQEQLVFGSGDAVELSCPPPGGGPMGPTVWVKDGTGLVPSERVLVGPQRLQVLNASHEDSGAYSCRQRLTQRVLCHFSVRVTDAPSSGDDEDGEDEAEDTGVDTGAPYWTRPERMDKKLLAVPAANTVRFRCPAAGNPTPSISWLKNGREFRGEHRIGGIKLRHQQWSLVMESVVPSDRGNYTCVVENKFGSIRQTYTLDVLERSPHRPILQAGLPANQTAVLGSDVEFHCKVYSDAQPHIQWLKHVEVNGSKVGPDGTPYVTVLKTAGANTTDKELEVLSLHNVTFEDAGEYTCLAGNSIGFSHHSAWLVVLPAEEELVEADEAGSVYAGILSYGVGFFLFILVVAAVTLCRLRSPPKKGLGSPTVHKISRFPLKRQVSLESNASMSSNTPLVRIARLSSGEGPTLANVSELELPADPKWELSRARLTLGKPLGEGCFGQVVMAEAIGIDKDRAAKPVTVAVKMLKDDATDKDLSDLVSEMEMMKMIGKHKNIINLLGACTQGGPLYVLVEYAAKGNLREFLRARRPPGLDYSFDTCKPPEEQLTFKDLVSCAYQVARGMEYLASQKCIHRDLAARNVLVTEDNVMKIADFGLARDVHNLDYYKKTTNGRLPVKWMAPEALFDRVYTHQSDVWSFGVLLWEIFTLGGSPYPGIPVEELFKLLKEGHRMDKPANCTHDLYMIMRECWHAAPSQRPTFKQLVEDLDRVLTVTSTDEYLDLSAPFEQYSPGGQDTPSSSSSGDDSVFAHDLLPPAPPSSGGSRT
Sequence of Calcium/calmodulin-dependent protein kinase kinase 2 (Homo sapiens) (Q96RR4 2-588 limits assumed): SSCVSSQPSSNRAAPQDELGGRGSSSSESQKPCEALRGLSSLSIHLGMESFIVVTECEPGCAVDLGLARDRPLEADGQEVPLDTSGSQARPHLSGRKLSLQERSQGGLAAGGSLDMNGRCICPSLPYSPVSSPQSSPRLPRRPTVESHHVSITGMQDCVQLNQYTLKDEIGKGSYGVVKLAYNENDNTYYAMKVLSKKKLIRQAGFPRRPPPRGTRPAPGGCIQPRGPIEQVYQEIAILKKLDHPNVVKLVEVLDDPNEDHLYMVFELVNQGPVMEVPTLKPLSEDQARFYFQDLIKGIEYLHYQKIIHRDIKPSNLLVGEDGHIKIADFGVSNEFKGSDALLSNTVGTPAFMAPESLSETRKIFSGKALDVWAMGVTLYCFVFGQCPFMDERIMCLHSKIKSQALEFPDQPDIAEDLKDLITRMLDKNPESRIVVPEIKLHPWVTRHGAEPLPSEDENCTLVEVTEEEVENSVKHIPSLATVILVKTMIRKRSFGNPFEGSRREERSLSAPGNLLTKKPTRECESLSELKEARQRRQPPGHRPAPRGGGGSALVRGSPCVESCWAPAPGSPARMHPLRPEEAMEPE

**Q.** Which % binding [1] does the source give for `COc1cc(N(C)c2ccnc3ccc(C(F)(F)F)cc23)cc(OC)c1OC` here?
**A.** The % binding was 85%.

**Q.** `CCC(=O)N1CCN(c2ccc(-n3c(=O)ccc4cnc5ccc(-c6cnc7ccccc7c6)cc5c43)cc2C(F)(F)F)CC1` was tested. Which % of control [2] did it give?
**A.** The % of control was 42%.

**Q.** With `CN(C)CCOc1ccc(-c2nc(-c3ccncc3)c(-c3ccc4c(c3)CC/C4=N\O)[nH]2)cc1` as the compound, how does the % of control [3] read?
**A.** The % of control was 77%.

**Q.** How did the % of control [4] turn out when `CC(=O)Nc1cccc(-n2c(=O)n(C3CC3)c(=O)c3c(Nc4ccc(I)cc4F)n(C)c(=O)c(C)c32)c1` was run?
**A.** Its % of control is 99%.

**Q.** `Cn1cc(-n2cnc3c(NCc4nc5cc(Cl)c(Cl)cc5[nH]4)nc(N4CCOCC4)nc32)cn1` was tested. Which % of control [5] did it give?
**A.** The % of control was 37.8%.

**Q.** With `CC[C@@H]1[C@H](F)C(=O)N[C@@H]1COc1nccc2cc(C(N)=O)c(OC)cc12` [ZIMLOVISERTIB] as the compound, how does the % of inhibition [6] read?
**A.** Its % of inhibition is 16.8%.

**Q.** What about the % of inhibition [7] of the same compound?
**A.** The % of inhibition was 9%.

**Q.** How did the % of control [8] turn out when `COCC(=O)NC/C=C/c1ccc2ncnc(Nc3ccc(Oc4ccc(C)nc4)c(C)c3)c2c1` [CP-724714] was run?
**A.** Its % of control is 84%.

**Q.** What about the % of control [9] of the same compound?
**A.** Its % of control is 100%.

**Q.** Which % of inhibition [10] does the source give for `CN1Cc2nccc(-c3cn(C)nc3-c3ccc(F)cc3)c2C1=O` here?
**A.** The % of inhibition was 1%.

**Q.** Which % of control [11] does the source give for `CN(C)C/C=C/C(=O)Nc1ccc(C(=O)N2CCCC(Nc3ncc(Cl)c(-c4c[nH]c5ccccc45)n3)C2)cc1` (stereo not drawn) here?
**A.** The % of control was 95%.

**Q.** And the % of control [12]?
**A.** The % of control was 83%.

**Q.** With `N#Cc1cccc(-c2c[nH]c3ncnc(N4CCOCC4)c23)c1` as the compound, how does the % of control [13] read?
**A.** Its % of control is 94%.
